{"source": "patent US20120022121A1", "about": "“INDOLES, DERIVATIVES AND ANALOGS THEREOF AND USES THEREFOR” (priority 2007, published 2012)", "key": {"HT-29": {"system": "HT-29", "test": "Cell viability SRB assay, 96 h", "format": "cell-based", "conditions": "Homo sapiens, HT-29, 96 h", "outline": "(§1)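 Cells seeded at 800–5,000/well in medium with 10% FBS and exposed to compound at 0–100 μM (DMSO <0.5%) in quadruplicate. Incubation 96 h at 37 °C, 5% CO2. Viability read by sulforhodamine B staining.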"}, "MCF-7": {"system": "MCF-7", "test": "Cell viability SRB assay, 96 h", "format": "cell-based", "conditions": "Homo sapiens, MCF7; MCF-7, 96 h", "outline": "as §1"}, "LNCaP and PC-3 cells [1]": {"system": "LNCaP and PC-3 cells", "test": "Anti-histone ELISA for apoptosis", "format": "cell-based, human", "conditions": "100 nM; LNCaP 24 h, PC-3 48 h", "description": "Cell viability (LNCaP, PC-3 prostate, DU145, PPC-1, and TSU-Pr1 prostate cancer cell lines, HT-29 colon cancer cell line, and MCF-7 breast cancer cell line) was quantitated using the sulforhodamine B (SRB) assay after 96 h coincubation with different concentrations of compound in 96-well plates. Cell viability of leukemia cells (K562 and doxorubicin-resistant K562/Dox) was quantitated by MTT assay after 96 h coincubation with different concentrations of compound in 96-well plates. Drug-induced apoptosis was determined by anti-histone ELISA assay and DNA laddering. Cell cycle progression was assessed by propidium iodide staining and fluorescence-activated cell sorting (FACS) analysis. In vitro tubulin polymerization assay was determined by CytoDYNAMIX ScreenTM3 (CDS-03) kits according to the manufacturer's instructions. Anti-apoptosis protein (Bcl-2 and Bcl-xl) and pro-apoptosis protein (Bax) were examined in LNCaP and PC-3 after 24 h incubation with different concentrations of compound 13 by Western blot assay. In vivo PC-3 xenograft studies were conducted by i.v. dosing of 50 mg/kg, 100 mg/kg and 150 mg/kg for 2 weeks.\n100 nM of compound 13 was incubated with LNCaP for 24 h and PC-3 for 48 h. […] The results are expressed as enrichment factor (Enrichment factor=OD of treated cells/OD from control cells). […]"}, "LNCaP and PC-3 cells [2]": {"system": "LNCaP and PC-3 cells", "test": "DNA fragmentation by agarose gel electrophoresis", "format": "cell-based, human", "description": "LNCaP and PC-3 cells were treated with different concentrations of drugs for different periods of time. At the end of the incubation, both floating and adherent cells were collected. […] DNA was visualized by ethidium bromide staining and UV transillumination."}, "[3]": {"test": "Subchronic toxicity in ICR mice", "format": "in vivo", "source_text": "The maximally tolerated dose (MTD) in the mouse was identified. […] Body weight changes and morbidity in treated animals were used as a direct measure of toxicity."}, "DU-145": {"system": "DU-145", "test": "Growth inhibition assay (SRB, 96 h)", "format": "cell-based", "conditions": "Homo sapiens, DU-145, 96 h", "source_text": "(§2) MTT (3-(4,5-dimethylthiazol-2-yl)-2,5-diphenyltetrazolium bromide) assay was also used for the leukemia cell lines. […] Cells were stained with SRB solution or MTT solution."}, "LNCaP": {"system": "LNCaP", "test": "Growth inhibition assay (SRB, 96 h)", "format": "cell-based", "conditions": "Homo sapiens", "source_text": "as §2"}, "PPC-1": {"system": "PPC-1", "test": "Growth inhibition assay (SRB, 96 h)", "format": "cell-based", "conditions": "Homo sapiens, PPC-1, 96 h", "source_text": "as §2"}, "K562": {"system": "K562", "test": "Growth inhibition assay (MTT, 96 h)", "format": "cell-based", "conditions": "Homo sapiens, K562 (parental)", "source_text": "as §2"}, "MES-SA": {"system": "MES-SA", "test": "Growth inhibition assay (96 h)", "format": "cell-based", "conditions": "Homo sapiens, MES-SA (parental)", "source_text": "as §2"}, "HEK293-pcDNA3-10": {"system": "HEK293-pcDNA3-10", "test": "Growth inhibition assay (96 h)", "format": "cell-based, human", "conditions": "Homo sapiens, HEK293-pcDNA3-10 (control for BCRP)", "source_text": "as §2"}, "PC-3 xenografts": {"system": "PC-3 xenografts", "test": "In vivo antitumor efficacy, PC-3 xenograft", "conditions": "for tumor growth inhibition: PC-3 xenograft, 2 days/week, 4 weeks"}, "PC-3 cells": {"system": "PC-3 cells", "test": "Indirect immunofluorescence microscopy of microtubules", "format": "cell-based, human", "conditions": "24 h, anti-α-tubulin-FITC", "description": "PC-3 cells were plated on poly-D-lysine coated glass cover slips in 6-well plates (5×10^4 cells/well) the day before treatment. After cells were incubated with cytotoxic agents at 37° C. for 24 h, cells were fixed on the cover slips with 4% formaldehyde in PBS for 10 min and permeabilized by 2% Triton-X in PBS for 5 min at rt. Fixed cells were blocked with 3% bovine serum albumin in TBST for 30 min and incubated with anti-α-tubulin-FITC antibody (1:100 dilution) at 4° C. overnight. Cover slips were mounted on slides using mounting medium with 4′,6-diamidino-2-phenylindole (DAPI), followed by microscopic analysis with a Zeiss Axioplan 2 fluorescent microscope (Carl Zeiss, Thornwood, N.Y.). Images were acquired with a Zeiss Axiocam HRc, using Zeiss AxioVision."}}, "data": [{"smiles": "O=C(c1cccc(-c2cc3ccccc3[nH]2)c1)c1cc2ccccc2[nH]1", "note": "[Compound 13, (1H-indol-2-yl)-[3-(1H-indol-2-yl)phenyl]methanone]", "values": [{"measurement": "IC50", "setting": "HT-29", "result": 0.062, "unit": "µM"}, {"measurement": "IC50", "setting": "MCF-7", "result": 0.162, "unit": "µM"}, {"measurement": "apoptosis by anti-histone ELISA", "setting": "LNCaP and PC-3 cells [1]", "result": "detected apoptosis"}, {"measurement": "DNA fragmentation", "setting": "LNCaP and PC-3 cells [2]", "result": "induced DNA fragmentation"}, {"measurement": "tolerability", "setting": "[3]; 50, 100 and 200 mg/kg S.C., 4 weeks, 5-days on/2 days off", "result": "generally well tolerated"}, {"measurement": "morbidity or rate of gain in body weight vs control", "setting": "[3]; 50 or 100 mg/kg S.C., 4 weeks", "result": "no significant difference"}, {"measurement": "less body weight gain as compared to control animals", "setting": "[3]; highest dose (200 mg/kg) S.C., 4-week treatment", "result": 20, "unit": "%"}]}, {"smiles": "COc1cc(C(=O)c2cccc(-c3cc4ccccc4[nH]3)c2)cc(OC)c1OC", "note": "[Compound 68, [3-(1H-Indol-2-yl)-phenyl]-(3,4,5-trimethoxy-phenyl)-methanone]", "values": [{"measurement": "IC50", "setting": "DU-145", "result": "0.0228 ± 0.0041", "unit": "µM"}, {"measurement": "IC50", "setting": "LNCaP", "result": "0.0309 ± 0.0035", "unit": "µM"}, {"measurement": "IC50", "setting": "PPC-1", "result": "0.0187 ± 0.0015", "unit": "µM"}, {"measurement": "IC50", "setting": "K562", "result": "0.0236 ± 0.0024", "unit": "µM"}, {"measurement": "IC50", "setting": "MES-SA", "result": "0.0315 ± 0.0029", "unit": "µM"}, {"measurement": "IC50", "setting": "HEK293-pcDNA3-10", "result": "0.0135 ± 0.0016", "unit": "µM"}, {"measurement": "tolerability", "setting": "PC-3 xenografts; PC-3 xenograft mice, 5 and 10 mg/kg twice weekly", "result": "well tolerated"}, {"measurement": "tumor growth inhibition", "setting": "PC-3 xenografts; 5 mg/kg i.p.", "result": 36, "unit": "%"}, {"measurement": "tumor growth inhibition", "setting": "PC-3 xenografts; 10 mg/kg i.p.", "result": 68, "unit": "%"}]}, {"smiles": "CC[C@]1(O)C[C@@H]2CN(CCc3c([nH]c4ccccc34)[C@@](C(=O)OC)(c3cc4c(cc3OC)N(C)[C@H]3[C@@](O)(C(=O)OC)[C@H](OC(C)=O)[C@]5(CC)C=CCN6CC[C@]43[C@@H]65)C2)C1", "note": "[Vinblastine]", "values": [{"measurement": "microtubule changes by immunofluorescence", "setting": "PC-3 cells", "result": "short microtubules"}]}]}
